Test results from patent US6586402B1, “LH-RH peptide analogues, their uses and pharmaceutical compositions containing them” (Laboratoire Theramex, priority 1997, dated 2003).
“Also recorded” adds a separate entry of the source. Square brackets hold non-standard residues; d marks the D form. Peptide text beside a SMILES is read from it. 1Nal = N[C@@H](Cc1cccc2ccccc12)C(=O)O; 2Nal = N[C@@H](Cc1ccc2ccccc2c1)C(=O)O; Bta = N[C@@H](Cc1csc2ccccc12)C(=O)O; tBuAla = CC(C)(C)C[C@H](N)C(=O)O; d3Pal = N[C@H](Cc1cccnc1)C(=O)O; d4Pal = N[C@H](Cc1ccncc1)C(=O)O; pGlu = O=C1CC[C@@H](C(=O)O)N1

Experiments:
LH-RH receptors = target: T1, LH-RH receptors (Rattus norvegicus, UniProt P30969); test: Stimulation of testosterone secretion in adult male rats after subcutaneous injection (agonist activity in vivo); parameters: exert an agonist activity upon the LH-RH receptors in vivo; from tissue; host or cells: whole animal, adult male Sprague-Dawley rats; species or system Sprague-Dawley rats; conditions: for Total plasma testosterone: 10 ng/kg subcutaneous in PBS, blood two hours later, male Sprague-Dawley rats; for agonistic potency in words: comment on Tables 2 and 3
T1 sequence (P30969 1-327): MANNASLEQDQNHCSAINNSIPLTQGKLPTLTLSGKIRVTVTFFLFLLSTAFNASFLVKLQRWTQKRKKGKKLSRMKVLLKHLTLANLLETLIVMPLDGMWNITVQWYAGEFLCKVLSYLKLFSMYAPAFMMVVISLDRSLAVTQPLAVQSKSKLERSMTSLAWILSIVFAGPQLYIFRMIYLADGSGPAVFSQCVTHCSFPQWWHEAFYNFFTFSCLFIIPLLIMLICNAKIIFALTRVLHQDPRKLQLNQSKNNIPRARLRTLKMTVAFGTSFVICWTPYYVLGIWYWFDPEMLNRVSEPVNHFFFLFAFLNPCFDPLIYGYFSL
Method: The peptides according to the general formula (IIa) exert an agonist activity upon the LH-RH receptors in vivo, resulting in the stimulation of LH secretion by the pituitary, which, in males, stimulates the secretion of testosterone by the testis.
Two hours later, blood samples were drawn for total plasma testosterone determination by direct radioimmunoassay (Immunotech).
At this intermediate dose of 10 ng/kg, several examples with Npg^7 or Ada^7 in place of Leu^7 according to the invention were screened for agonistic activity (Tables 2 and 3). When available from Bachem (France) or Sigma (France), the corresponding standard agonist with Leu^7 was tested for comparison.

[1] = target: LH-RH receptors (membrane fractions of pituitaries from female Sprague Dawley rats) (rat (female Sprague Dawley)) (UniProt P30969); test: competition with [125I]-buserelin, rat pituitary membranes; Ki by Cheng-Prusoff

Total plasma testosterone (LH-RH receptors; Table 2, vehicle 2.7 ± 0.3) [nmol/L]	Compound	agonistic potency in words (LH-RH receptors; 10 ng/kg s.c.)	also measured
30.6 ± 7.2	CCNC(=O)[C@@H]1CCCN1C(=O)[C@H](CCCNC(=N)N)NC(=O)[C@H](CC(C)C)NC(=O)[C@@H](C)NC(=O)[C@H](Cc1ccc(O)cc1)NC(=O)[C@H](CO)NC(=O)[C@H](Cc1c[nH]c2ccccc12)NC(=O)[C@H](Cc1c[nH]cn1)NC(=O)[C@@H]1CCC(=O)N1 [[D-Ala^6, Pro^9NEt]-LH-RH, reference compound]	–	–
16.7 ± 4.3	CCNC(=O)[C@@H]1CCCN1C(=O)[C@H](CCCNC(=N)N)NC(=O)[C@H](CC(C)C)NC(=O)[C@@H](Cc1ccccc1)NC(=O)[C@H](Cc1ccc(O)cc1)NC(=O)[C@H](CO)NC(=O)[C@H](Cc1c[nH]c2ccccc12)NC(=O)[C@H](Cc1c[nH]cn1)NC(=O)[C@@H]1CCC(=O)N1 [[D-Phe^6, Pro^9NEt]-LH-RH, reference compound]	–	–
–	AcD-Nal-D-pClPhe-D-Pal-Ser-NicLys-D-NicLys-Npg-IprLys-Pro-D-Ala-NH2 (peptide)	–	pKi [1]: 9.23 -log Ki
–	pGlu-His-Trp-Ser-Tyr-D-Phe-Npg-Arg-Pro-NEt (peptide)	–	pKi [1]: 9.64 -log Ki
–	CCNC(=O)[C@@H]1CCCN1C(=O)[C@H](CCCNC(=N)N)NC(=O)[C@H](CC(C)(C)C)NC(=O)[C@@H](CC(C)C)NC(=O)[C@H](Cc1ccc(O)cc1)NC(=O)[C@H](CO)NC(=O)[C@H](Cc1csc2ccccc12)NC(=O)[C@H](Cc1c[nH]cn1)NC(=O)[C@@H]1CCC(=O)N1 [Example 26, pGlu-His-Bal-Ser-Tyr-D-Leu-Npg-Arg-Pro-NEt] ([pGlu]H[Bta]SY[dL][tBuAla]RP-NHEt)	–	Total plasma testosterone (LH-RH receptors; Table 3, vehicle 4.3 ± 1.2): 12.2 ± 2.7 nmol/L
24.8 ± 4.1	pGlu-His-Trp-Ser-Tyr-D-Trp-Ada-Arg-Pro-Gly-NH2 [Example 30]	–	–
–	AcD-Nal-D-pClPhe-D-Pal-Ser-Tyr-D-Cit-Npg-IprLys-Pro-D-Ala-NH2 (peptide)	–	pKi [1]: 9.72 -log Ki
11.8 ± 3.5	CCNC(=O)[C@@H]1CCCN1C(=O)[C@H](CCCN=C(N)N)NC(=O)[C@H](CC(C)C)NC(=O)[C@@H](Cc1c[nH]c2ccccc12)NC(=O)[C@H](Cc1ccc(O)cc1)NC(=O)[C@H](CO)NC(=O)[C@H](Cc1c[nH]c2ccccc12)NC(=O)[C@H](Cc1cnc[nH]1)NC(=O)[C@@H]1CCC(=O)N1 [Deslorelin, reference compound]	–	–
44.9 ± 6.0	pGlu-His-Trp-Ser-Tyr-D-Ala-Ada-Arg-Pro-NEt [Example 28]	the Ada^7 replacement was more favorable than Npg^7; also recorded: more potent LH-RH agonists than current therapeutic LH-RH analogues	–
–	CCNC(=O)[C@@H]1CCCN1C(=O)[C@H](CCCNC(=N)N)NC(=O)[C@H](CC(C)(C)C)NC(=O)[C@@H](CC(C)C)NC(=O)[C@H](Cc1ccc(O)cc1)NC(=O)[C@H](CO)NC(=O)[C@H](Cc1ccc2ccccc2c1)NC(=O)[C@H](Cc1c[nH]cn1)NC(=O)[C@@H]1CCC(=O)N1 [Example 25, pGlu-His-2Nal-Ser-Tyr-D-Leu-Npg-Arg-Pro-NEt] ([pGlu]H[2Nal]SY[dL][tBuAla]RP-NHEt)	range of potency similar to that of leuprorelin or tryptorelin	Total plasma testosterone (LH-RH receptors; Table 3, vehicle 4.3 ± 1.2): 27.3 ± 6.9 nmol/L
–	AcD-Nal-D-pClPhe-D-Pal-Ser-Tyr-D-HCit-Npg-IprLys-Pro-D-Ala-NH2 (peptide)	–	pKi [1]: 10.1 -log Ki
33.5 ± 3.5	CCNC(=O)[C@@H]1CCCN1C(=O)[C@H](CCCNC(=N)N)NC(=O)[C@H](CC(C)C)NC(=O)[C@@H](CC(C)C)NC(=O)[C@H](Cc1ccc(O)cc1)NC(=O)[C@H](CO)NC(=O)[C@H](Cc1c[nH]c2ccccc12)NC(=O)[C@H](Cc1c[nH]cn1)NC(=O)[C@@H]1CCC(=O)N1 [Leuprorelin, reference compound]	–	–
–	pGlu-His-Trp-Ser-Tyr-D-Ala-Npg-Arg-Pro-NEt (peptide)	–	pKi [1]: 10 -log Ki
6.4 ± 1.9	CC(C)C[C@H](NC(=O)[C@@H](C)NC(=O)[C@H](Cc1ccc(O)cc1)NC(=O)[C@H](CO)NC(=O)[C@H](Cc1c[nH]c2ccccc12)NC(=O)[C@H](Cc1c[nH]cn1)NC(=O)[C@@H]1CCC(=O)N1)C(=O)N[C@@H](CCCNC(=N)N)C(=O)N1CCC[C@H]1C(=O)NCC(N)=O [[D-Ala^6]-LH-RH, reference compound]	–	–
–	CCNC(=O)[C@@H]1CCCN1C(=O)[C@H](CCCNC(=N)N)NC(=O)[C@H](CC(C)(C)C)NC(=O)[C@@H](CC(C)C)NC(=O)[C@H](Cc1ccc(O)cc1)NC(=O)[C@H](CO)NC(=O)[C@H](Cc1cccc2ccccc12)NC(=O)[C@H](Cc1c[nH]cn1)NC(=O)[C@@H]1CCC(=O)N1 [Example 24, pGlu-His-1Nal-Ser-Tyr-D-Leu-Npg-Arg-Pro-NEt] ([pGlu]H[1Nal]SY[dL][tBuAla]RP-NHEt)	–	Total plasma testosterone (LH-RH receptors; Table 3, vehicle 4.3 ± 1.2): 14.3 ± 4.3 nmol/L
–	CC(C)(C)C[C@H](NC(=O)[C@@H](Cc1ccncc1)NC(=O)[C@H](Cc1ccc(O)cc1)NC(=O)[C@H](CO)NC(=O)[C@H](Cc1c[nH]c2ccccc12)NC(=O)[C@H](Cc1c[nH]cn1)NC(=O)[C@@H]1CCC(=O)N1)C(=O)N[C@@H](CCCNC(=N)N)C(=O)N1CCC[C@H]1C(=O)NCC(N)=O [Example 21, pGlu-His-Trp-Ser-Tyr-D-4Pal-Npg-Arg-Pro-Gly-NH2] ([pGlu]HWSY[d4Pal][tBuAla]RPG-NH2)	range of potency similar to that of leuprorelin or tryptorelin	Total plasma testosterone (LH-RH receptors; Table 3, vehicle 4.3 ± 1.2): 32.4 ± 7.0 nmol/L
–	CC(C)(C)C[C@H](NC(=O)CNC(=O)[C@H](Cc1ccc(O)cc1)NC(=O)[C@H](CO)NC(=O)[C@H](Cc1c[nH]c2ccccc12)NC(=O)[C@H](Cc1c[nH]cn1)NC(=O)[C@@H]1CCC(=O)N1)C(=O)N[C@@H](CCCNC(=N)N)C(=O)N1CCC[C@H]1C(=O)NCC(N)=O [Example 1, pGlu-His-Trp-Ser-Tyr-Gly-Npg-Arg-Pro-Gly-NH2]	–	activity in stimulating testosterone secretion relative to LH-RH (LH-RH receptors; FIG. 1, various doses s.c., 8 animals per point): a little more than twice as active as LH-RH
21.2 ± 6.6	CC(C)C[C@@H](NC(=O)[C@H](Cc1ccc(O)cc1)NC(=O)[C@H](CO)NC(=O)[C@H](Cc1c[nH]c2ccccc12)NC(=O)[C@H](Cc1c[nH]cn1)NC(=O)[C@@H]1CCC(=O)N1)C(=O)N[C@@H](CC(C)(C)C)C(=O)N[C@@H](CCCNC(=N)N)C(=O)N1CCC[C@H]1C(=O)NCC(N)=O [Example 5, pGlu-His-Trp-Ser-Tyr-D-Leu-Npg-Arg-Pro-Gly-NH2] ([pGlu]HWSY[dL][tBuAla]RPG-NH2)	range of potency similar to that of leuprorelin or tryptorelin	–
–	CCNC(=O)[C@@H]1CCCN1C(=O)[C@H](CCCNC(=N)N)NC(=O)[C@H](CC(C)(C)C)N(C)C(=O)[C@@H](CC(C)C)NC(=O)[C@H](Cc1ccc(O)cc1)NC(=O)[C@H](CO)NC(=O)[C@H](Cc1c[nH]c2ccccc12)NC(=O)[C@H](Cc1c[nH]cn1)NC(=O)[C@@H]1CCC(=O)N1 [Example 23, pGlu-His-Trp-Ser-Tyr-D-Leu-MeNpg-Arg-Pro-NEt]	very strong agonistic activity; also recorded: more potent LH-RH agonists than current therapeutic LH-RH analogues	Total plasma testosterone (LH-RH receptors; Table 3, vehicle 4.3 ± 1.2): 49.4 ± 4.6 nmol/L
–	CC(C)(C)C[C@H](NC(=O)[C@@H](Cc1cccnc1)NC(=O)[C@H](Cc1ccc(O)cc1)NC(=O)[C@H](CO)NC(=O)[C@H](Cc1c[nH]c2ccccc12)NC(=O)[C@H](Cc1c[nH]cn1)NC(=O)[C@@H]1CCC(=O)N1)C(=O)N[C@@H](CCCNC(=N)N)C(=O)N1CCC[C@H]1C(=O)NCC(N)=O [Example 20, pGlu-His-Trp-Ser-Tyr-D-Pal-Npg-Arg-Pro-Gly-NH2] ([pGlu]HWSY[d3Pal][tBuAla]RPG-NH2)	range of potency similar to that of leuprorelin or tryptorelin	Total plasma testosterone (LH-RH receptors; Table 3, vehicle 4.3 ± 1.2): 24.9 ± 5.0 nmol/L
20.3 ± 2.5	CC(C)C[C@H](NC(=O)[C@@H](Cc1c[nH]c2ccccc12)NC(=O)[C@H](Cc1ccc(O)cc1)NC(=O)[C@H](CO)NC(=O)[C@H](Cc1c[nH]c2ccccc12)NC(=O)[C@H](Cc1c[nH]cn1)NC(=O)[C@@H]1CCC(=O)N1)C(=O)N[C@@H](CCCNC(=N)N)C(=O)N1CCC[C@H]1C(=O)NCC(N)=O [Tryptorelin, reference compound]	–	–
36.2 ± 4.5	pGlu-His-Trp-Ser-Tyr-D-Leu-Ada-Arg-Pro-NEt [Example 29]	–	–
28.0 ± 4.1	pGlu-His-Trp-Ser-Tyr-D-Phe-Ada-Arg-Pro-NEt [Example 27]	the Ada^7 replacement was more favorable than Npg^7	–
30.8 ± 3.5	CC(C)(C)C[C@H](NC(=O)[C@@H](Cc1c[nH]c2ccccc12)NC(=O)[C@H](Cc1ccc(O)cc1)NC(=O)[C@H](CO)NC(=O)[C@H](Cc1c[nH]c2ccccc12)NC(=O)[C@H](Cc1c[nH]cn1)NC(=O)[C@@H]1CCC(=O)N1)C(=O)N[C@@H](CCCNC(=N)N)C(=O)N1CCC[C@H]1C(=O)NCC(N)=O [Example 11, pGlu-His-Trp-Ser-Tyr-D-Trp-Npg-Arg-Pro-Gly-NH2] ([pGlu]HWSY[dW][tBuAla]RPG-NH2)	Npg^7 led to more potent agonists than Ada^7	activity in stimulating testosterone secretion relative to the Leu^7 counterpart (LH-RH receptors; 10 ng/kg s.c.): a little more than twice as active
